Source: patent US11597745B2, “β-modified phosphoric acid compound precursor, β-modified phosphoric acid compound, reaction inhibitor and medicine containing the same, and method for inhibiting reaction” (priority 2018, dated 2023)
pEC50: −log10 of the molar value.

Experiments:
HIV-1 (NL4-3) WT = test: Anti-HIV activity measurement, TZM-bl cells, luciferase; format: cell-based; details: for pEC50: Human immunodeficiency virus 1, NL43, TZM-bl, read-out: EC50 for HIV
Protocol: (§1) TZM-bl cells were cultured in a medium in which fetal bovine serum (Japan Bio Serum) having a final concentration of 10% had been added into Dulbecco's modified Eagle's Medium (DMEM) (SIGMA/Cat. No. D5796), under the conditions of 37° C. and 5% CO2. TZM-bl cells were plated in a 96-well microplate (1.3×10^4 cells/100 μL DMEM+10% FBS). On the following day, a drug solution, and HIV-1 (NL4-3, 10 ng) were added to the culture medium in this order. After two days, […] of culture supernatant was removed, 100 μL of 1×Steady Glo (Promega/Cat. No. E2510) was added into the resultant medium, luciferase in 80 μL of scraped cell lysate was quantified with a dedicated plate (Coster/Cat. No. 3912) IESEL, VERITAS Microplate Luminometer (Promega), and the anti-HIV-1 activity (EC50) of the drug was calculated. Experiments were performed on multiple compounds by using various types of viruses. In Table (A), the “AZT” means azidothymidine, the “Lamivudine” means lamivudine, and the “Didanosine” means didanosine.

HIV M184V = test: as above; format: cell-based, HIV-1; details: Human immunodeficiency virus 1, TZM-bl, read-out: EC50 for HIV
Protocol: as §1

HIV M41L/T215Y = test: as above; format: cell-based, HIV-1; details: Human immunodeficiency virus 1, TZM-bl, read-out: EC50 for HIV
Protocol: as §1

HIV M41L/T69SSG/T215Y = test: as above; format: cell-based, HIV-1; details: for pEC50: Human immunodeficiency virus 1, TZM-bl, read-out: EC50 for HIV
Protocol: as §1

[1] = test system: HBV (genotype C) in EB-HBCe cells; test: Anti-HBV activity: HBV DNA of viral particles in culture supernatant of EB-HBCe cells by qPCR; format: cell-based, hepatitis B virus; details: FIG. 5; for anti-HBV activity (HBV DNA): various final concentrations, 9 days, activity higher at higher concentration
Protocol: A cell line EB-HBCe, which is derived from a human liver cancer cell HuH-7 and in which the HBV genome (genotype C) constantly replicates, was plated in a 24-well plate, respective compound were added at various final concentrations into the plate, and the cell line EB-HBCe was cultured for 9 days. During the culture, the medium was replaced with new one and the above compounds were added at the same concentration into the plate, every three days.
The culture supernatant was collected, the viral particles were precipitated by the addition of a PNE solution (8.45% PEG 6000, 0.445 M NaCl, 13 mM EDTA), and then the nucleic acids outside the particles were removed by the treatment with DNase I (TAKARA BIO INC.) and RNase A (TAKARA BIO INC.) at 37° C. for 1 hour. Further, after the overnight treatment with Proteinase K, the DNA was extracted with phenol/chloroform, and precipitated with ethanol. The precipitate was solubilized, and then the HBV DNA was quantitatively measured by using SYBR qPCR Mix Kit (TOYOBO CO., LTD.). In FIG. 5, the “SelenoA” indicates the results of addition of compound 13, and the “entecavir” indicates the result of addition of entecavir.

[2] = Cytotoxicity evaluation, MTT assay; format: cell-based; details: human; MT-4 cells, MTT, 5th day of culture
Protocol: (§2) In MTT assay, Celltiter 96 Non-radioactive Cell Proliferation Assay (Promega) was used. MT-4 cells were infected with HIV-1 NL4-3 at multiplicity of infection (MOI)=0.001. HIV-1-infected (37° C., 1-1.5 hours) or -uninfected MT-4 cells (2.5×10^5/ml, 100 μL) were aliquoted into a 96-well microplate (final DMSO concentration: 0.5%), and the culture was started at 37° C. and 5% CO2. On the 5th day of the culture, the culture supernatant (100 μL) was removed, 15 μL of dye solution (MTT reagent) was added into each well, and the cells were cultured in a CO2 incubator for 1 hour. Subsequently, 100 μL of solubilization solution/stop mix was added into each well, mixed sufficiently, and the obtained mixture was left to stand at 4° C. overnight. After returning the temperature of the plate to room temperature, DD570/690 was measured with a spectrophotometer (BIO-TEK ELx808, CC50).

MT-4 cells = test: Cytotoxicity evaluation, MTT assay; format: cell-based; details: comparison in words from Table 1 (B)
Protocol: as §2

SMILES | pEC50 (HIV-1 (NL4-3) WT) | pEC50 (HIV M184V) | pEC50 (HIV M41L/T215Y) | pEC50 (HIV M41L/T69SSG/T215Y) | anti-HBV activity (HBV DNA) [1] | anti-HBV activity, ranking among SelenoA, Pro SelenoA and Pro A ([1]; concentration of addition 10 μM) | anti-HIV activity compared with Lamivudine and Didanosine (HIV-1 (NL4-3) WT; comparison in words from Table 1 (A), all virus types) | anti-HIV activity compared with AZT (HIV M41L/T69SSG/T215Y; HIV-type M41L/T69SSG/T215Y, comparison in words from Table 1 (A)) | CC50 at 5 day [2] | toxicity compared with AZT (MT-4 cells)
O=c1[nH]cnc2c1ncn2[C@H]1CC[C@@H](CO)O1 [Didanosine, didanosine, reference compound] | 5.49 | 5.08 | 5.25 | 4.77 |  |  |  |  |  | 
Nc1ccn([C@@H]2CS[C@H](CO)O2)c(=O)n1 [Lamivudine, lamivudine, reference compound] | 5.92 | < 4.00 | 5.77 | 4.62 |  |  |  |  |  | 
CCCSSC1[C@@H](O)[C@@H](COP(O)(=N[C@@H](C)C(=O)OC(C)C)Oc2ccccc2)O[C@H]1n1cnc2c(N)ncnc21 (some centres unmarked) [Pro A] |  |  |  |  | showed anti-HBV activity |  |  |  |  | 
C[Se]C1[C@@H](O)[C@@H](COP(O)(=N[C@@H](C)C(=O)OC(C)C)Oc2ccccc2)O[C@H]1n1cnc2c(N)ncnc21 (some centres unmarked) [Pro SelenoA] | 6.01 | 5.70 | 5.89 | 5.85 | showed anti-HBV activity | highest anti-HBV activity among these three kinds | higher anti-HIV activity | more excellent anti-HIV activity | > 100000 nM | lower
Nc1ncnc2c1ncn2[C@@H]1O[C@H](CO)[C@@H](O)[C@H]1[SeH] [SelenoA, Seleno adenosine] |  |  |  |  | showed anti-HBV activity |  |  |  |  | 
